Data: US20230085307A1, “PYRIDAZINONE COMPOUND AND HERBICIDE” (NISSAN CHEMICAL CORPORATION, priority 2019, published 2023)

Assays:
blackgrass = test: Test Example 4: herbicidal effect by soil treatment (Table 19, symbol J); assay type: in vivo, blackgrass (Alopecurus myosuroides); conditions: amount of applied herbicide 320 g/ha
Summary of the method: (§1)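 Herbicidal effect was rated 3 weeks after treatment, using the scoring criteria of an earlier test. The compound, formulated as an emulsion and diluted in water to a set herbicide amount, had been sprayed uniformly on soil over freshly sown seeds. Growth took place in a greenhouse at 25° C. to 30° C.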

persian speedwell = test: Test Example 5: herbicidal effect by foliage application, plastic box (Table 20, symbol R); assay type: in vivo, Persian speedwell (Veronica persica); conditions: foliage application, 320 g/ha, three weeks after application
Summary of the method: (§2)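 Foliar spray test: emulsion formulation diluted in water to a set application rate, sprayed onto 14-day-old plants raised in diluvial soil at 25° C to 30° C under glass. Both herbicidal effect and crop effect rated visually three weeks later.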

chickweed = test: Test Example 4: herbicidal effect by soil treatment (Table 19, symbol P); assay type: in vivo, common chickweed (Stellaria media); conditions: amount of applied herbicide 320 g/ha
Summary of the method: as §1

barnyard grass = test: Test Example 4: herbicidal effect by soil treatment (Table 19, symbol H); assay type: in vivo, barnyard grass (Echinochloa crus-galli); conditions: amount of applied herbicide 320 g/ha
Summary of the method: as §1

oval-leafed pondweed [1] = test: Test Example 2: herbicidal activity, application during weed generation under submerged conditions (Table 17, symbol C); assay type: in vivo, oval-leafed pondweed (Monochoria vaginalis); conditions: AAH 320 g/ha; application during weed generation, submerged conditions
Summary of the method: (§3)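 Herbicide emulsion, diluted with water to the chosen amount, is applied onto 4 cm floodwater over alluvial soil where the weeds were co-sown and raised at 25–30° C. Application timing: 1–2 leaves. Assessment: three weeks afterwards.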

wild oat = test: Test Example 4: herbicidal effect by soil treatment (Table 19, symbol I); assay type: in vivo, wild oat (Avena fatua); conditions: amount of applied herbicide 320 g/ha
Summary of the method: as §1

oval-leafed pondweed [2] = test: Test Example 1: herbicidal activity, application before weed generation under submerged conditions (Table 16, symbol C); assay type: in vivo, oval-leafed pondweed (Monochoria vaginalis); conditions: amount of applied herbicide 320 g/ha
Summary of the method: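 Alluvial soil was flooded to 4 cm depth, weed seeds were sown mixed and 2.5-leaf rice seedlings were transplanted. On sowing day, the compound's emulsion, diluted in water to a set dose, was applied to the water surface. Plants grew at 25–30 °C and were scored 0–5 after three weeks.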

lambsquarters [3] = test: Test Example 5: herbicidal effect by foliage application, plastic box (Table 20, symbol O); assay type: in vivo, lambsquarters (Chenopodium album); conditions: foliage application, 320 g/ha, three weeks after application
Summary of the method: as §2

Italian ryegrass = test: Test Example 5: herbicidal effect by foliage application, plastic box (Table 20, symbol K); assay type: in vivo, Italian ryegrass (Lolium multiflorum); conditions: foliage application, 320 g/ha, three weeks after application
Summary of the method: as §2

Chinese sprangletop = test: Test Example 3: herbicidal effect by foliage application, Wagner pot (Table 18, symbol D); assay type: in vivo, chinese sprangletop (Leptochloa chinensis); conditions: amount of applied herbicide 320 g/ha
Summary of the method: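 Plants were sown in alluvial soil held under 0.1–0.5 cm standing water and grown 14 days in a greenhouse at 25–30 °C. An emulsifiable formulation, water-diluted to the set dose, was then sprayed onto the foliage, and effects were scored three weeks later using previously defined criteria.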

redroot pigweed = test: Test Example 4: herbicidal effect by soil treatment (Table 19, symbol N); assay type: in vivo, redroot pigweed (Amaranthus retroflexus); conditions: amount of applied herbicide 320 g/ha
Summary of the method: as §1

late watergrass = test: Test Example 2: herbicidal activity, application during weed generation under submerged conditions (Table 17, symbol A); assay type: in vivo, late watergrass (Echinochloa oryzicola); conditions: AAH 320 g/ha; application during weed generation, submerged conditions
Summary of the method: as §3

Japanese bulrush = test: Test Example 2: herbicidal activity, application during weed generation under submerged conditions (Table 17, symbol B); assay type: in vivo, Japanese bulrush (Schoenoplectus juncoides); conditions: AAH 320 g/ha; application during weed generation, submerged conditions
Summary of the method: as §3

lambsquarters [4] = test: Test Example 4: herbicidal effect by soil treatment (Table 19, symbol O); assay type: in vivo, lambsquarters (Chenopodium album); conditions: amount of applied herbicide 320 g/ha
Summary of the method: as §1

SMILES | J: blackgrass, herbicidal effect grade (blackgrass) | herbicidal effect on persian speedwell (R) (persian speedwell) | P: chickweed, herbicidal effect grade (chickweed) | H: barnyard grass, herbicidal effect grade (barnyard grass) | herbicidal effect rating, C: oval-leafed pondweed (oval-leafed pondweed [1]) | I: wild oat, herbicidal effect grade (wild oat) | Herbicidal effect, C: oval-leafed pondweed (oval-leafed pondweed [2]) | herbicidal effect on lambsquarters (O) (lambsquarters [3]) | herbicidal effect on Italian ryegrass (K) (Italian ryegrass) | Herbicidal effect on D (Chinese sprangletop), foliage application (Chinese sprangletop) | N: redroot pigweed, herbicidal effect grade (redroot pigweed) | herbicidal effect rating, A: late watergrass (late watergrass) | herbicidal effect rating, B: Japanese bulrush (Japanese bulrush) | O: lambsquarters, herbicidal effect grade (lambsquarters [4])
COc1ccccc1-c1sc2c(Br)c(OC)ccc2c1-c1c(O)c(C)nn(C)c1=O [7-002] | 0 (Herbicidal rate of 5% or less (almost no effect)) | 5 (Herbicidal rate of 90% or more (almost completely withered)) | 3 (Herbicidal rate of 40% or more and less than 70%) | 2 (Herbicidal rate of 20% or more and less than 40%) | 2 (Herbicidal rate of 20% or more and less than 40%) | 0 (Herbicidal rate of 5% or less (almost no effect)) | 3 (Herbicidal rate of 40% or more and less than 70%) | 4 (Herbicidal rate of 70% or more and less than 90%) | 5 (Herbicidal rate of 90% or more (almost completely withered)) | 2 (Herbicidal rate of 20% or more and less than 40%) | 5 (Herbicidal rate of 90% or more (almost completely withered)) | 3 (Herbicidal rate of 40% or more and less than 70%) | 2 (Herbicidal rate of 20% or more and less than 40%) | 4 (Herbicidal rate of 70% or more and less than 90%)
CCCOc1ccc(-c2oc3ccccc3c2-c2c(O)c(C)nn(C)c2=O)cc1 [8-003] | 1 (Herbicidal rate of 5% or more and less than 20%) | 5 (Herbicidal rate of 90% or more (almost completely withered)) | 1 (Herbicidal rate of 5% or more and less than 20%) | 5 (Herbicidal rate of 90% or more (almost completely withered)) | 3 (Herbicidal rate of 40% or more and less than 70%) | 0 (Herbicidal rate of 5% or less (almost no effect)) | 5 (Herbicidal rate of 90% or more (almost completely withered)) | 3 (Herbicidal rate of 40% or more and less than 70%) | 4 (Herbicidal rate of 70% or more and less than 90%) | 3 (Herbicidal rate of 40% or more and less than 70%) | 5 (Herbicidal rate of 90% or more (almost completely withered)) | 4 (Herbicidal rate of 70% or more and less than 90%) | 3 (Herbicidal rate of 40% or more and less than 70%) | 3 (Herbicidal rate of 40% or more and less than 70%)
C=CCOc1ccc(-c2oc3ccccc3c2-c2c(O)c(C)nn(C)c2=O)cc1 [8-004] | 0 (Herbicidal rate of 5% or less (almost no effect)) | 5 (Herbicidal rate of 90% or more (almost completely withered)) | 1 (Herbicidal rate of 5% or more and less than 20%) | 4 (Herbicidal rate of 70% or more and less than 90%) | 3 (Herbicidal rate of 40% or more and less than 70%) | 0 (Herbicidal rate of 5% or less (almost no effect)) | 4 (Herbicidal rate of 70% or more and less than 90%) | 3 (Herbicidal rate of 40% or more and less than 70%) | 4 (Herbicidal rate of 70% or more and less than 90%) | 3 (Herbicidal rate of 40% or more and less than 70%) | 5 (Herbicidal rate of 90% or more (almost completely withered)) | 3 (Herbicidal rate of 40% or more and less than 70%) | 3 (Herbicidal rate of 40% or more and less than 70%) | 2 (Herbicidal rate of 20% or more and less than 40%)
COCCOc1ccc(-c2oc3ccccc3c2-c2c(O)c(C)nn(C)c2=O)cc1 [Compound No. 8-007, 5-hydroxy-4-(2-(4-(2-methoxyethoxy)phenyl)benzofuran-3-yl)-2,6-dimethylpyridazin-3-(2H)-one] | 3 (Herbicidal rate of 40% or more and less than 70%) | 5 (Herbicidal rate of 90% or more (almost completely withered)) | 0 (Herbicidal rate of 5% or less (almost no effect)) | 5 (Herbicidal rate of 90% or more (almost completely withered)) | 3 (Herbicidal rate of 40% or more and less than 70%) | 0 (Herbicidal rate of 5% or less (almost no effect)) | 4 (Herbicidal rate of 70% or more and less than 90%) | 4 (Herbicidal rate of 70% or more and less than 90%) | 5 (Herbicidal rate of 90% or more (almost completely withered)) | 3 (Herbicidal rate of 40% or more and less than 70%) | 5 (Herbicidal rate of 90% or more (almost completely withered)) | 5 (Herbicidal rate of 90% or more (almost completely withered)) | 4 (Herbicidal rate of 70% or more and less than 90%) | 4 (Herbicidal rate of 70% or more and less than 90%)
COc1ccc(-c2oc3ccc(F)cc3c2-c2c(O)c(C)nn(C)c2=O)cc1 [Compound No. 9-020, 4-(5-fluoro-2-(4-methoxyphenyl)benzofuran-3-yl)-5-hydroxy-2,6-dimethylpyridazin-3(2H)-one] | 3 (Herbicidal rate of 40% or more and less than 70%) | 5 (Herbicidal rate of 90% or more (almost completely withered)) | 4 (Herbicidal rate of 70% or more and less than 90%) | 4 (Herbicidal rate of 70% or more and less than 90%) | 3 (Herbicidal rate of 40% or more and less than 70%) | 2 (Herbicidal rate of 20% or more and less than 40%) | 5 (Herbicidal rate of 90% or more (almost completely withered)) | 5 (Herbicidal rate of 90% or more (almost completely withered)) | 4 (Herbicidal rate of 70% or more and less than 90%) | 4 (Herbicidal rate of 70% or more and less than 90%) | 5 (Herbicidal rate of 90% or more (almost completely withered)) | 3 (Herbicidal rate of 40% or more and less than 70%) | 3 (Herbicidal rate of 40% or more and less than 70%) | 0 (Herbicidal rate of 5% or less (almost no effect))
